Like-named read-outs stand apart in the source and are kept apart here. Ends that are not written are not given here.
Columns and labels:
[1] = test system: rabbit conjunctiva tissue sections (sialic acid on mucin-1; collagen type I); conditions: for localisation of peptide staining on conjunctiva sections: biotin-conjugated peptide 1.0 mg/ml, compared with anti-mucin-1 / anti-collagen type I antibody
Protocol: To visualize binding of SABpep and ColBpep to the ocular surface, we performed immunohistochemistry with biotin-conjugated peptides on tissue section of rabbit conjunctiva. Conjunctival tissue dissected from rabbit eyes were fixed with 4% paraformaldehyde (PFA) solution (Electron Microscopy Sciences, Hatfield, Pa.), embedded and sectioned (thickness-5 μm) in paraffin. The sections were first incubated with biotin-conjugated peptides (1.0 mg/ml in PBS pH 7.4) for 1 h at room temperature, washed thrice with PBS and then stained with streptavidin-Texas Red conjugate (Vector Laboratories, CA) in accordance to manufacturer's protocol. The samples were then washed again three times, mounted with DAPI mounting medium (Vector Laboratories) and imaged with Zeiss Axio Imager 2 microscope (Carl Zeiss, Jena, Germany). Sections stained with only secondary antibody served as negative control. Mouse anti-mucin-1 primary antibody (Novus Biologicals, Littleton, Colo.) and mouse anti-collagen type I antibody (Abcam, Cambridge, Mass.) were used as replacements to SABpep and ColBpep in the positive controls, respectively, and stained with goat anti-mouse IgG secondary antibody (Life Technologies, NY).
To examine if SABpep binds specifically to sialic acid segment on the oligosaccharide chains, paraffin embedded and 4% PFA fixed rabbit conjunctiva tissue sections were stained with three different groups were selected (SABpep, sialidase treated+SABpep, SA+SABpep). Sections in the first group were stained with SABpep as described in the main text; sections in the second group were treated with sialidase (α2-3,6,8 Neuraminidase, 60 U/ml; New England Biolabs, Ipswich, Mass.) first for one hour at 37° C. before the addition of SABpep; and finally, sections in the third group were stained with SABpep pre-incubated with sialic acid (N-Acetylneuraminic acid, 100 mM; Carbosynth, Compton, Berkshire, UK) for one hour at room temperature. The staining procedure was the same in all three groups (streptavidin-fluorescein was used for detecting biotin conjugated SABpep; DAPI was used as counterstain for nuclei). The sections were imaged using Zeiss Axio Imager 2 microscope.

[2] = test system: Rabbit conjunctival primary epithelial cells; test: Live/dead staining and AlamarBlue cytotoxicity assessment; assay type: cell-based; conditions: 1.0 mg/ml, 24 h; data not shown
Protocol: Rabbit conjunctival primary epithelial cells were isolated as described previously in the main text. Cells were seeded in 96 well microplates for AlamarBlue assays (Life Technologies, NY) and live/dead staining at a density of 10,000 cells/cm^2. Cells were allowed to grow to about 90% confluence before experiments were carried out. Three different concentrations of HA-FL were tested: 1.0 mg/ml, 100 μg/ml and 10 μg/ml. SABpep and ColBpep were added to the medium for 24 h with a concentration of 1.0 mg/ml. Calcein AM and ethidium homodimer-1 (EthD-1; Life Technologies, NY) were used as live/dead staining agents according manufacture's manual, and cells were imaged using Zeiss Axio Imager 2 microscope. AlamarBlue assay was performed with quadruplets for every group. After 2 h incubation, the absorbance values at 570 nm on a Synergy 2 microplate reader were recorded.

[3] = test system: conjunctiva tissue; test: HABA assay: screening of biotin-conjugated ocular surface-binding peptides on conjunctival tissue; set-up: species or system rabbit; conditions: six peptides of Table 1, biotin-conjugated, 1.0 mg/mL in PBS, 20 min, compared to control
Description: Conjunctival tissue from the ocular surface was targeted to test the binding affinity of the multiple peptides. Conjunctiva was harvested from rabbit eyes (Pel-Freez Biologicals, Rogers, Ariz.) with the underlying tenon's capsule removed, and then cut into 6 mm pieces with a biopsy punch. The conjunctival epithelium was kept intact for testing SABpep, while the epithelium was scrapped off with a cell scraper for testing type I collagen-binding peptide (ColBpep). The tissue pieces were merged in the biotin-conjugated peptide solutions (1.0 mg/mL in PBS, pH 7.4; Life Technologies, NY) for 20 minutes and then washed three times with PBS to remove any unbound peptides. A HABA (4′-hydroxyazobenzene-2-carboxylic acid) assay (Life Technologies, NY) was used to measure the amount of bound peptide (biotin), per manufacturer's instructions. An aqueous solution of biotin (1.0 mg/mL) without peptides was used as a negative control.

Row | Sequence | localisation of peptide staining on conjunctiva sections ([1]; 1 h, listed as ColBpep-biotin) | cytotoxicity to epithelial cells [2] | amount of peptide bound to conjunctiva tissue (normalized to the dry weight) [3] | amount of peptide bound to conjunctiva tissue (normalized to the dry weight) ([3]; listed as peptide 6) | localisation of peptide staining on conjunctiva sections ([1]; 1 h, listed as SABpep-biotin) | staining of epithelium after preincubation of peptide with sialic acid ([1]; sialic acid 100 mM, 1 h, room temperature) | binding to conjunctival epithelium after sialidase digestion of the section ([1]; sialidase 60 U/ml, 1 h at 37° C. before staining) | amount of peptide bound to conjunctiva tissue (normalized to the dry weight) ([3]; listed as peptide 3)
1 | SYIRIADTNIT [ColBpep] | binds to any collagen I on the tissue | little to no cytotoxicity | the most promising candidates | bound the most | – | – | – | –
2 | GGSPYGRC (also: biotin, position not given here) [SABpep] | – | little to no cytotoxicity | the most promising candidates | – | binds selectively to epithelial lining of conjunctiva | still stained the epithelium | could not bind to conjunctival epithelium | bound the most
